From patent publication US20240270715A1, “INHIBITORS OF TRANSGLUTAMINASES” (ZEDIRA GMBH, priority 2021, published 2024) come the findings set out here.

A value given as a limit tells only on which side of the number the result lay.

Usually IC50 stands for the concentration that gives 50% inhibition. In general, logD refers to lipophilicity at a set pH, counting ionised and neutral species. A word on the Papp: it is the rate of passage across a membrane or cell layer, normalised by area and donor concentration. Low readings indicate slow passage, high ones fast passage.

For data set [1], the target named is T1, recombinant human transglutaminase 2 (Homo sapiens, UniProt P21980).
T1 sequence (P21980 1-687): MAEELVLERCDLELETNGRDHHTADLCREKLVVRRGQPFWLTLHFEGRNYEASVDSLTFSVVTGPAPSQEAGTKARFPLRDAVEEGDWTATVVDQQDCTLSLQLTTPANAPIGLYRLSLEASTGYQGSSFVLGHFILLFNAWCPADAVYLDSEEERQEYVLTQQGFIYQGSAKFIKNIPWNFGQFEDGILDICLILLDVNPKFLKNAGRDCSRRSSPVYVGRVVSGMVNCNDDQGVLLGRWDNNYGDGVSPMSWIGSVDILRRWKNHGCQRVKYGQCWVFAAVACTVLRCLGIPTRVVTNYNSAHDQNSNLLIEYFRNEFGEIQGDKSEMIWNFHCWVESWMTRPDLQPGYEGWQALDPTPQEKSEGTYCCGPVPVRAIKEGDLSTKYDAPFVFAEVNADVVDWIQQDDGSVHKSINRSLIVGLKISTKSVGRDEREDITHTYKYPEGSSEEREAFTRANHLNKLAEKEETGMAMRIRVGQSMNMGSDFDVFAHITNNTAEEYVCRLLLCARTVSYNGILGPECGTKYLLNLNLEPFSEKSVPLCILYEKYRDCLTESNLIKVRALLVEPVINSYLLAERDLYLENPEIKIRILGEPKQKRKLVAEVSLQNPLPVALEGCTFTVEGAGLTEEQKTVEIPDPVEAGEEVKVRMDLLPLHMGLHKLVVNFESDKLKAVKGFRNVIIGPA
The data set is described as follows: Transglutaminase assay: incorporation of dansylcadaverine into dimethylcasein (DCC-assay). Format: biochemical. The following applies: for IC50: recombinant human TG2 10 nM, dansylcadaverine/dimethylcasein, read-out: IC50 TG2. The procedure, abridged: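 Recombinant human TG2 (10 nM final) incorporates dansylcadaverine (16.7 μM) into N,N-dimethylcasein (4 μM) in Tris-HCl buffer, pH 8.0, with 10 mM CaCl2 and 10 mM glutathione. Fluorescence (λex 330, λem 500 nm) followed 30 min. The slope between 20–30 min gives activity versus DMSO control, and IC50 comes from the concentration–activity plot.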

Data set [2] can be described thus: Log D by shake flask method (octanol / PBS pH 7.4, HPLC). As to conditions: octanol / PBS pH 7.4, shake flask; read-out: logD. Format: physicochemical. The procedure, abridged:
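Log D is derived by HPLC measurement of how the compound distributes between octanol and pH 7.4 phosphate-buffered saline in a shake flask.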

A short description of data set [3]: Caco-2 permeability assay (CacoReady kit). Format: in vitro ADME. The following applies: human. An outline of the steps: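 Intestinal permeability modelled with kit-supplied Caco-2 barriers, run as the maker specifies; each compound reported as Papp.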
For orientation: Caco-2 cells form a polarised layer with tight junctions and transporters.

Consider `CCNC(=O)C(=O)CC[C@H](NC(=O)c1ccc2cnccc2n1)C(=O)Nc1cccn(CC(=O)NC2C3CC4CC2CC(CC)(C4)C3)c1=O` (stereo partly drawn) [Compound I-106, (S)-N1-ethyl-N6-(1-(2-(5-ethyladamantane-2-amino)-2-oxoethyl)-2-oxo-1,2-dihydropyridin-3-yl)-5-(1,6-naphthyridine-2-carboxamido)-2-oxohexanediamide], for which, in data set [1], the IC50 lay within 600 to 3500 nM. Besides, the logD in data set [2] fell in the range of 3 to 5. This molecule also had a Papp in data set [3] of less than 1 ×10⁻⁶ cm/s.

On to `CCNC(=O)C(=O)CC[C@H](NC(=O)c1nccc2cnccc12)C(=O)Nc1cccn(CC(=O)NC23CCC(C2)C3)c1=O` [Compound I-107, (S)-N1-(1-(2-(bicyclo[2.1.1]hexan-1-ylamino)-2-oxoethyl)-2-oxo-1,2-dihydropyridin-3-yl)-N6-ethyl-2-(2,6-naphthyridine-1-carboxamido)-5-oxohexanediamide], for which the IC50 in data set [1] lay within 600 to 3500 nM. The logD in data set [2] is less than 1. In data set [3], this molecule returned a Papp of less than 1 ×10⁻⁶ cm/s.

For the molecule `CCNC(=O)C(=O)CC[C@H](NC(=O)c1nonc1N)C(=O)Nc1cccn(CC(=O)NC23CC(C2)C3)c1=O` [Compound I-108, (S)-2-(4-amino-1,2,5-oxadiazole-3-carboxamido)-N1-(1-(2-(bicyclo[1.1.1]pentan-1-ylamino)-2-oxoethyl)-2-oxo-1,2-dihydropyridin-3-yl)-N6-ethyl-5-oxohexanediamide], the IC50 in data set [1] is 600 to 3500 nM. Besides, the logD in data set [2] is less than 1. This molecule also registered a Papp in data set [3] of less than 1 ×10⁻⁶ cm/s.

As to `CCNC(=O)C(=O)CC[C@H](NC(=O)c1cc2ccc(N(C)C)cc2o1)C(=O)Nc1cccn(CC(=O)NC23CC(C2)C3)c1=O` [Compound I-109, (S)-N1-(1-(2-(bicyclo[1.1.1]pentan-1-ylamino)-2-oxoethyl)-2-oxo-1,2-dihydropyridin-3-yl)-2-(6-(dimethylamino)benzofuran-2-carboxamido)-N6-ethyl-5-oxohexanediamide], the IC50 in data set [1] was in the range of 150 to 600 nM. Moreover, in data set [2], the logD is less than 1. This molecule had a Papp in data set [3] of less than 1 ×10⁻⁶ cm/s.

Regarding `CCNC(=O)C(=O)CC[C@H](NC(=O)c1cnc(NC(C)=O)s1)C(=O)Nc1cccn(CC(=O)NC23CC(C2)C3)c1=O` [Compound I-110, (S)-2-(2-acetamidothiazole-5-carboxamido)-N1-(1-(2-(bicyclo[1.1.1]pentan-1-ylamino)-2-oxoethyl)-2-oxo-1,2-dihydropyridin-3-yl)-N6-ethyl-5-oxohexanediamide], the IC50 in data set [1] fell in the range of 600 to 3500 nM. For the same molecule, the logD in data set [2] was less than 1. In data set [3], the Papp was less than 1 ×10⁻⁶ cm/s.

In the case of `CCNC(=O)C(=O)CC[C@H](NC(=O)c1c[nH]c(C(N)=O)c1)C(=O)Nc1cccn(CC(=O)NC23CC(C2)C3)c1=O` [Compound I-111, (S)-N4-(1-(1-(2-(bicyclo[1.1.1]pentan-1-ylamino)-2-oxoethyl)-2-oxo-1,2-dihydropyridin-3-ylamino)-6-(ethylamino)-1,5,6-trioxohexan-2-yl)-1H-pyrrole-2,4-dicarboxamide], the IC50 in data set [1] was 600 to 3500 nM. In addition, the logD in data set [2] is less than 1. In data set [3], this molecule had a Papp of less than 1 ×10⁻⁶ cm/s.

Turning to `CCNC(=O)C(=O)CC[C@H](NC(=O)c1coc(S(N)(=O)=O)c1)C(=O)Nc1cccn(CC(=O)NC2C3CC4CC2CC(NC(C)=O)(C4)C3)c1=O` (stereo partly drawn) [Compound I-112, (S)-N1-ethyl-N6-(1-(2-(1-acetylamino-4-aminoadamantane)-2-oxoethyl)-2-oxo-1,2-dihydropyridin-3-yl)-2-oxo-5-(5-sulfamoylfuran-3-carboxamido)hexanediamide], in data set [1], the IC50 lay in the range of 600 to 3500 nM. In addition, the logD in data set [2] is less than 1. Further, the Papp in data set [3] was less than 1 ×10⁻⁶ cm/s.

As to `CCNC(=O)C(=O)CC[C@H](NC(=O)c1ccc2occc2c1)C(=O)Nc1cccn(CC(=O)NC2C3CC4CC2CC(NC(C)=O)(C4)C3)c1=O` (stereo partly drawn) [Compound I-113, (S)-2-(benzofuran-5-carboxamido)-N6-ethyl-N1-(1-(2-(1-acetylamino-4-aminoadamantane)-2-oxoethyl)-2-oxo-1,2-dihydropyridin-3-yl)-5-oxohexanediamide], in data set [1], the IC50 was 150 to 600 nM. The logD in data set [2] is less than 1. This molecule also displayed a Papp in data set [3] of less than 1 ×10⁻⁶ cm/s.

Consider `CCNC(=O)C(=O)CC[C@H](NC(=O)c1ccc2ccoc2c1)C(=O)Nc1cccn(CC(=O)NC2C3CC4CC2CC(C(N)=O)(C4)C3)c1=O` (stereo partly drawn) [Compound I-114, (S)-2-(benzofuran-6-carboxamido)-N6-ethyl-N1-(1-(2-(4-aminoadamantane-1-carboxamide)-2-oxoethyl)-2-oxo-1,2-dihydropyridin-3-yl)-5-oxohexanediamide], for which, in data set [1], the IC50 was in the range of 150 to 600 nM. Also, the logD in data set [2] was less than 1. The same molecule showed a Papp in data set [3] of less than 1 ×10⁻⁶ cm/s.

As to `CCNC(=O)C(=O)CC[C@H](NC(=O)c1nc(C2(C)CC2)no1)C(=O)Nc1cccn(CC(=O)NC2C3CC4CC2CC(C(N)=O)(C4)C3)c1=O` (stereo partly drawn) [Compound I-115, (S)-N1-ethyl-N6-(1-(2-(4-aminoadamantane-1-carboxamide)-2-oxoethyl)-2-oxo-1,2-dihydropyridin-3-yl)-5-(3-(1-methylcyclopropyl)-1,2,4-oxadiazole-5-carboxamido)-2-oxohexanediamide], the IC50 in data set [1] was in the range of 600 to 3500 nM. The logD in data set [2] is less than 1. This molecule registered a Papp in data set [3] of less than 1 ×10⁻⁶ cm/s.

With `CCNC(=O)C(=O)CC[C@H](NC(=O)c1noc(C)n1)C(=O)Nc1cccn(CC(=O)NC23CC(C2)C3)c1=O` [Compound I-116, (S)-N1-(1-(2-(bicyclo[1.1.1]pentan-1-ylamino)-2-oxoethyl)-2-oxo-1,2-dihydropyridin-3-yl)-N6-ethyl-2-(5-methyl-1,2,4-oxadiazole-3-carboxamido)-5-oxohexanediamide], the IC50 in data set [1] fell in the range of 600 to 3500 nM. In addition, the logD in data set [2] was less than 1. This molecule also came in with a Papp in data set [3] of less than 1 ×10⁻⁶ cm/s.

With `CCNC(=O)C(=O)CC[C@H](NC(=O)c1csnn1)C(=O)Nc1cccn(CC(=O)NC23CC(C2)C3)c1=O` [Compound I-117, (S)-N1-(1-(2-(bicyclo[1.1.1]pentan-1-ylamino)-2-oxoethyl)-2-oxo-1,2-dihydropyridin-3-yl)-N6-ethyl-5-oxo-2-(1,2,3-thiadiazole-4-carboxamido)hexanediamide], the IC50 in data set [1] fell in the range of 150 to 600 nM. The log distribution coefficient (logD) in data set [2] was less than 1. This molecule showed a Papp in data set [3] of less than 1 ×10⁻⁶ cm/s.

As to `CCNC(=O)C(=O)CC[C@H](NC(=O)c1ncns1)C(=O)Nc1cccn(CC(=O)NC23CC(C2)C3)c1=O` [Compound I-118, (S)-N1-(1-(2-(bicyclo[1.1.1]pentan-1-ylamino)-2-oxoethyl)-2-oxo-1,2-dihydropyridin-3-yl)-N6-ethyl-5-oxo-2-(1,2,4-thiadiazole-5-carboxamido)hexanediamide], the IC50 in data set [1] lay in the range of 150 to 600 nM. Also, in data set [2], the logD is less than 1. The molecule further showed a Papp in data set [3] of less than 1 ×10⁻⁶ cm/s.

Take `CCNC(=O)C(=O)CC[C@H](NC(=O)c1nncs1)C(=O)Nc1cccn(CC(=O)NC23CC(C2)C3)c1=O` [Compound I-119, (S)-N1-(1-(2-(bicyclo[1.1.1]pentan-1-ylamino)-2-oxoethyl)-2-oxo-1,2-dihydropyridin-3-yl)-N6-ethyl-5-oxo-2-(1,3,4-thiadiazole-2-carboxamido)hexanediamide]: in data set [1], the IC50 was 150 to 600 nM. The logD in data set [2] is less than 1. In data set [3], this molecule registered a Papp of less than 1 ×10⁻⁶ cm/s.

As to `CCNC(=O)C(=O)CC[C@H](NC(=O)c1snnc1C=O)C(=O)Nc1cccn(CC(=O)NC2C3CC4CC(C3)CC2C4)c1=O` (stereo partly drawn) [Compound I-120, (S)-N1-ethyl-5-(4-formyl-1,2,3-thiadiazole-5-carboxamido)-N6-(1-(2-(2-adamantylamino)-2-oxoethyl)-2-oxo-1,2-dihydropyridin-3-yl)-2-oxohexanediamide], the IC50 in data set [1] was in the range of 150 to 600 nM. Besides, in data set [2], the pH-dependent lipophilicity (logD) was less than 1. This molecule also yielded a Papp in data set [3] of less than 1 ×10⁻⁶ cm/s.

Regarding `CCNC(=O)C(=O)CC[C@H](NC(=O)c1cccnc1)C(=O)Nc1cccn(CC(=O)NC23CC4CC(CC(C4)C2)C3)c1=O` [Compound I-121, (S)-N1-ethyl-N6-(1-(2-(3,5-dimethyladamantane-1-amino)-2-oxoethyl)-2-oxo-1,2-dihydropyridin-3-yl)-5-(nicotinamido)-2-oxohexanediamide], in data set [1], the IC50 was less than 150 nM. Also, the logD in data set [2] is less than 1. This molecule also displayed a Papp in data set [3] of less than 1 ×10⁻⁶ cm/s.

In the case of `CCC(CC)CNC(=O)Cn1cccc(NC(=O)[C@H](CCC(=O)C(=O)NC)NC(=O)c2cncn2C)c1=O` [Ref. 1, reference compound], the “fold more potent compared to Ref. 4” value in data set [1] (ratio of IC50, compare table 1) is reported as “about 15 fold”. Besides, in data set [1], the IC50 fell in the range of 600 to 3500 nM. The logD in data set [2] was less than 1. For the same molecule, in data set [3], the Papp is less than 1 ×10⁻⁶ cm/s.
